Assay results taken from patent publication US20090042883A1, “ANTITUMOR AGENT” (KYOWA HAKKOKOGYO CO., priority 2005, published 2009).

Columns and labels:
Format in all cases: cell-based
[1] = test system: human acute myelocytic leukemia MV4; 11 cells; test: Growth inhibition test on human acute myelocytic leukemia MV4; 11 cells (WST-1, % viability); conditions: test compound 10 μmol/L, cells without test compound = 100%
Protocol: (§1) Ten thousand cells of human acute myelocytic leukemia MV4; 11 were inoculated into each well of a 96-well microplate (manufactured by Nunc Corp.), and using IMDM medium (culture medium) containing 10% FCS, preculturing was performed in a 5% carbon dioxide incubator at 37° C. for 24 hours. A DMSO solution of each test compound prepared in a concentration of 10 mmol/L was diluted with the culture medium to a final concentration of 10 μmol/L, and the diluted solution was added to each well. The individual wells were further cultured in the 5% carbon dioxide incubator at 37° C. for 72 hours. After completion of the culturing, 10 μL of WST-1 labeled mixture (manufactured by Roche Diagnostic Corp.) was added to each well, and culturing was performed in the 5% carbon dioxide incubator at 37° C. for 1 hour. Using a microplate spectrophotometer (SpectraMax 340PC384; manufactured by Nihon Molecular Devices), the absorbance of each well was measured at 450 nm and 655 nm. The value obtained by subtracting the absorbance at 450 nm from the absorbance at 655 nm (absorbance difference) was calculated for each well. The value for cells not incorporated with a test compound was designated as 100%, and the value at a well not containing cells was designated as 0%. By comparing these values with the absorbance difference obtained at the well in which each test compound was added, the cell viability (% viability) after treatment with the test compound was calculated.

[2] = test system: human multiple myeloma NCI-H929 cells; test: Growth inhibition test on human multiple myeloma NCI-H929 cells (WST-1, % viability); conditions: test compound 10 μmol/L, cells without test compound = 100%
Protocol: as §1, with “multiple myeloma NCI-H929” for “acute myelocytic leukemia MV4; 11”, “RPMI” for “IMDM”, “2 hours.” for “1 hour.”

[3] = test system: human T-cell lymphoma Karpas-299 cells; test: Growth inhibition test on human T-cell lymphoma Karpas-299 cells (WST-1, % viability); conditions: test compound 10 μmol/L, 72 hours, cells without test compound = 100%
Protocol: as §1, with “Five” for “Ten”, “T-cell lymphoma Karpas-299” for “acute myelocytic leukemia MV4; 11”, “RPMI” for “IMDM”, “5” for “24”, “2 hours.” for “1 hour.”

[4] = test system: human mammary cancer BT-474 cells; test: Growth inhibition test on human mammary cancer BT-474 cells (WST-1, % viability); conditions: test compound 10 μmol/L, cells without test compound = 100%
Protocol: as §1, with “Four” for “Ten”, “mammary cancer BT-474” for “acute myelocytic leukemia MV4; 11”, “Dulbecco's Modified Eagle's Medium (DMEM)” for “IMDM medium”, “2 hours.” for “1 hour.”

[5] = test system: human prostate cancer 22Rv1 cells; test: Growth inhibition test on human prostate cancer 22Rv1 cells (WST-1, % viability); conditions: test compound 10 μmol/L, 72 hours, cells without test compound = 100%
Protocol: as §1, with “Five” for “Ten”, “prostate cancer 22Rv1” for “acute myelocytic leukemia MV4; 11”, “RPMI1640” for “IMDM”, “2 hours.” for “1 hour.”, “(Model 550;” for “(SpectraMax 340PC384;”, “Bio-Rad),” for “Nihon Molecular Devices),”

Structure (SMILES) | Viability of tumor cells (% viability), Human acute myelocytic leukemia MV4; 11 cells [1] [%] | Viability of tumor cells (% viability), Human multiple myeloma NCI-H929 cells [2] [%] | Viability of tumor cells (% viability), Human T-cell lymphoma Karpas-299 cells [3] [%] | Viability of tumor cells (% viability), Human mammary cancer BT-474 cells [4] [%] | Viability of tumor cells (% viability), Human prostate cancer 22Rv1 cells [5] [%]
CCc1c(O)cc(O)c(C(=O)c2ccc(OC)cc2)c1CC(=O)N(CCO)CCOC [Compound 33] | 0 | 0 | 14 | 13 | 5
CCc1c(O)cc(O)c(C(=O)c2ccc(OC(C)C)cc2)c1CC(=O)N(CCOC)CCN1CCOCC1 [Compound 134] | 0 | 0 | 16 | 13 | 6
CCc1c(O)cc(O)c(C(=O)c2ccc(OC)cc2)c1CC(=O)N1CCN(c2ccccc2C#N)CC1 [Compound 17] | 0 | 0 | 16 | 10 | 5
CCc1c(O)cc(O)c(C(=O)c2ccc(OC)cc2)c1CC(=O)N(CCO)Cc1ccco1 [Compound 69] | 0 | 0 | 14 | 13 | 5
CCc1c(O)cc(O)c(C(=O)c2ccc(OC)cc2)c1CC(=O)N1CCc2cc(OC)c(OC)cc2C1 [Compound 38] | 0 | 0 | 14 | 13 | 4
CCc1c(O)cc(O)c(C(=O)c2ccc(OC(F)(F)F)cc2)c1CC(=O)N(CCO)CCOC [Compound 88] | 0 | 0 | 16 | 13 | 6
CCc1c(O)cc(O)c(C(=O)c2ccc(OC)cc2)c1CC(=O)N(C)Cc1cccnc1 [Compound 16] | 0 | 0 | 13 | 12 | 5
CCc1c(O)cc(O)c(C(=O)c2ccc(OCCN3CCOCC3)c(OC)c2)c1CC(=O)N(CCOC)CCOC.Cl [Compound 139] | 1 | 0 | 14 | 14 | 5
CCc1c(O)cc(O)c(C(=O)c2ccc(OC(C)C)cc2)c1CC(=O)N(CCO)CCOC [Compound 124] | 0 | 0 | 14 | 13 | 5
CCc1c(O)cc(O)c(C(=O)c2ccc(OC)cc2)c1CC(=O)N1CCC(CO)CC1 [Compound 61] | 0 | 0 | 13 | 12 | 5
CCOc1ccc(C(=O)c2c(O)cc(O)c(CC)c2CC(=O)N(CCO)CCOC)cc1 [Compound 122] | 0 | 0 | 12 | 12 | 5
CCc1c(O)cc(O)c(C(=O)c2ccc(OCCCN3CCOCC3)c(OC)c2)c1CC(=O)N(CCOC)CCOC [Compound 149] | 0 | 0 | 14 | 14 | 4
CCc1c(O)cc(O)c(C(=O)c2ccc(OC)c(OC)c2)c1CC(=O)N1CCN(c2ccccc2)CC1 [Compound 41] | 0 | 0 | 19 | 14 | 5
